Laboratory results from the supplement of paper PMC8671470.

Key:
Details in all cases: 72 h
BV-173 [1] = test system: BV-173
Method in brief: (§1)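 Fifteen myeloid leukaemia cell lines were seeded in RPMI 1640 at a density titrated to the linear growth range. Each line went into 384-well plates with compounds acoustically pre-printed at five tenfold doses from 1 to 10,000 nM, in duplicate, and was incubated for 72 h at 37 °C with 5% CO2. Luminescent ATP viability was normalised to vehicle and to a positive control at 10 µM. The IC50 came from four-parameter log-logistic dose–response fits.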

HEL [2] = test system: HEL
Method in brief: as §1

HL-60 [3] = test system: HL-60
Method in brief: as §1

K-562 [4] = test system: K-562
Method in brief: as §1

KCL-22 [5] = test system: KCL-22
Method in brief: as §1

KG-1 [6] = test system: KG-1
Method in brief: as §1

KU-812 = test system: KU-812
Method in brief: as §1

LAMA-84 [7] = test system: LAMA-84
Method in brief: as §1

ML-2 [8] = test system: ML-2
Method in brief: as §1

MOLM-13 [9] = test system: MOLM-13
Method in brief: as §1

MV4-11 [10] = test system: MV4-11
Method in brief: as §1

Mono-Mac-6 = test system: Mono-Mac-6
Method in brief: as §1

NOMO-1 = test system: NOMO-1
Method in brief: as §1

SHI-1 [11] = test system: SHI-1
Method in brief: as §1

THP-1 = test system: THP-1
Method in brief: as §1

HL-60 [12] = experiment: cell viability (% survival relative to DMSO control); higher = less cytotoxic
Method in brief: (§2)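 HL-60 cells grown in RPMI 1640 with 10% FBS were rescreened against the full library in 384-well plates, in duplicate, at five tenfold concentrations from 1 to 10,000 nM, alongside DMSO or 100 nM of one of three metabolic inhibitors for 72 h at 37 °C, 5% CO2. Reference wells contained DMSO or 10 μM proteasome inhibitor. Viability was read with CellTiter-Glo and normalised to these reference wells, and where reported, area under the curve was taken from four-parameter log-logistic fits in drc and PharmacoGx.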

BV-173 [13] = experiment: cell viability (% survival relative to DMSO control, bortezomib = 0%); higher = less cytotoxic
Method in brief: (§3)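 Fifteen myeloid leukaemia cell lines (10 AML, 5 CML) were seeded at a density titrated to the linear growth range into 384-well plates pre-printed with compounds at 1, 10, 100, 1000 or 10000 nM in duplicate. Plates were incubated for 72 h at 37 °C with 5% CO2. Viability was then read by CellTiter-Glo luminescence. Each value is percent survival averaged over the duplicates, with vehicle set to 100% and a 10 µM positive control to 0%.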

HEL [14] = experiment: as above
Method in brief: as §3

HL-60 [15] = experiment: as above
Method in brief: as §3

K-562 [16] = experiment: as above
Method in brief: as §3

KCL-22 [17] = experiment: as above
Method in brief: as §3

KG-1 [18] = experiment: as above
Method in brief: as §3

LAMA-84 [19] = experiment: as above
Method in brief: as §3

ML-2 [20] = experiment: as above
Method in brief: as §3

MOLM-13 [21] = experiment: as above
Method in brief: as §3

MV4-11 [22] = experiment: as above
Method in brief: as §3

SHI-1 [23] = experiment: as above
Method in brief: as §3

HL-60 [24] = experiment: area under dose-response curve (viability, 1 nM-10 uM) (fraction (0-1)); higher = more sensitive
Method in brief: as §2

NCc1ccc(-c2cccnc2)s1 [(5-Pyrid-3-YLTHIEN-2-YL)METHYLAMINE]
Details | IC50 (cell viability) [µM]
BV-173 [1] | > 10
HEL [2] | > 10
HL-60 [3] | > 10
K-562 [4] | > 10
KCL-22 [5] | > 10
KG-1 [6] | > 10
KU-812 | > 10
LAMA-84 [7] | > 10
ML-2 [8] | > 10
MOLM-13 [9] | > 10
MV4-11 [10] | > 10
Mono-Mac-6 | > 10
NOMO-1 | > 10
SHI-1 [11] | > 10
THP-1 | > 10

cell viability [%], HL-60 [12]
Details | 0.001 µM | 0.01 µM | 0.1 µM | 1 µM | 10 µM
co-treatment: AZD3965 100 nM | 103 | 78 | 114 | 97 | 101
co-treatment: DMSO vehicle | 103 | 101 | 109 | 92.7 | 98.43
co-treatment: GSK2194069 100 nM | 105 | 94.3 | 107.2 | 95.1 | 96.7
co-treatment: pictilisib 100 nM | 104 | 91.2 | 113 | 92.2 | 96.9

Details | area under dose-response curve, co-treatment: AZD3965 100 nM | area under dose-response curve, co-treatment: DMSO vehicle | area under dose-response curve, co-treatment: GSK2194069 100 nM | area under dose-response curve, co-treatment: pictilisib 100 nM | cell viability, 1 nM [%] | cell viability, 10 nM [%] | cell viability, 100 nM [%] | cell viability, 1000 nM [%] | cell viability, 10000 nM [%]
BV-173 [13] | – | – | – | – | 113 | 102 | 98.7 | 104 | 87.2
HEL [14] | – | – | – | – | 105 | 103 | 104 | 109 | 104
HL-60 [15] | – | – | – | – | 99.3 | 107 | 103 | 115 | 121
HL-60 [24] | < 0.0301 | < 0.0301 | < 0.0301 | < 0.0301 | – | – | – | – | –
K-562 [16] | – | – | – | – | 92.7 | 122 | 96.1 | 90.4 | 94
KCL-22 [17] | – | – | – | – | 122 | 114 | 91.6 | 84.7 | 88.8
KG-1 [18] | – | – | – | – | 109 | 108 | 99.8 | 108 | 87.6
LAMA-84 [19] | – | – | – | – | 108 | 106 | 102 | 93 | 91.2
ML-2 [20] | – | – | – | – | 104 | 108 | 97.6 | 113 | 96.5
MOLM-13 [21] | – | – | – | – | 100 | 102 | 93.7 | 97.8 | 91.8
MV4-11 [22] | – | – | – | – | 91.6 | 123 | 104 | 110 | 89.6
SHI-1 [23] | – | – | – | – | 107 | 115 | 105 | 97 | 100

CC(=O)N[C@@H](CS)C(=O)O [Acetylcysteine]
Details | IC50 (cell viability) [µM]
BV-173 [1] | > 10
HEL [2] | > 10
HL-60 [3] | > 10
K-562 [4] | > 10
KCL-22 [5] | > 10
KG-1 [6] | > 10
KU-812 | > 10
LAMA-84 [7] | > 10
ML-2 [8] | > 10
MOLM-13 [9] | > 10
MV4-11 [10] | > 10
Mono-Mac-6 | > 10
NOMO-1 | > 10
SHI-1 [11] | > 10
THP-1 | > 10

cell viability [%], HL-60 [12]
Details | 0.001 µM | 0.01 µM | 0.1 µM | 1 µM | 10 µM
co-treatment: AZD3965 100 nM | 99.1 | 99.8 | 105 | 102 | 91.6
co-treatment: DMSO vehicle | 94.2 | 101.13 | 104 | 96.1 | 93.7
co-treatment: GSK2194069 100 nM | 97.8 | 103 | 106 | 101 | 91.4
co-treatment: pictilisib 100 nM | 103 | 101.2 | 106 | 101 | 86.3

Details | area under dose-response curve, co-treatment: AZD3965 100 nM | area under dose-response curve, co-treatment: DMSO vehicle | area under dose-response curve, co-treatment: GSK2194069 100 nM | area under dose-response curve, co-treatment: pictilisib 100 nM | cell viability, 1 nM [%] | cell viability, 10 nM [%] | cell viability, 100 nM [%] | cell viability, 1000 nM [%] | cell viability, 10000 nM [%]
BV-173 [13] | – | – | – | – | 109 | 96.7 | 92.2 | 98.9 | 95.2
HEL [14] | – | – | – | – | 110 | 90.4 | 90 | 113 | 104
HL-60 [15] | – | – | – | – | 107 | 93.1 | 93.5 | 125 | 122
HL-60 [24] | < 0.0301 | < 0.0301 | < 0.0301 | < 0.0301 | – | – | – | – | –
K-562 [16] | – | – | – | – | 106 | 97.9 | 77.2 | 96.2 | 103
KCL-22 [17] | – | – | – | – | 117 | 92.8 | 102 | 93.3 | 97.6
KG-1 [18] | – | – | – | – | 113 | 98.3 | 101 | 88.9 | 101
LAMA-84 [19] | – | – | – | – | 96.2 | 96.8 | 88 | 101 | 101
ML-2 [20] | – | – | – | – | 104 | 91.3 | 97.3 | 89.2 | 102
MOLM-13 [21] | – | – | – | – | 107 | 107 | 81.8 | 110 | 105
MV4-11 [22] | – | – | – | – | 112 | 102 | 102 | 111 | 112
SHI-1 [23] | – | – | – | – | 100 | 96.5 | 105 | 97.2 | 110

CCCCC/C=C\C/C=C\C/C=C\C/C=C\CCCC(=O)C(F)(F)F [Arachidonyl trifluoromethyl ketone]
Details | IC50 (cell viability) [µM]
BV-173 [1] | > 10
HEL [2] | > 10
HL-60 [3] | > 10
K-562 [4] | > 10
KCL-22 [5] | > 10
KG-1 [6] | > 10
KU-812 | > 10
LAMA-84 [7] | > 10
ML-2 [8] | > 10
MOLM-13 [9] | > 10
MV4-11 [10] | > 10
Mono-Mac-6 | 7.99
NOMO-1 | > 10
SHI-1 [11] | > 10
THP-1 | > 10

cell viability [%], HL-60 [12]
Details | 0.001 µM | 0.01 µM | 0.1 µM | 1 µM | 10 µM
co-treatment: AZD3965 100 nM | 101 | 104 | 101 | 91.8 | 98.3
co-treatment: DMSO vehicle | 96.7 | 102 | 101 | 101 | 101
co-treatment: GSK2194069 100 nM | 88.4 | 101 | 108 | 89.7 | 56.72
co-treatment: pictilisib 100 nM | 99.6 | 104 | 102 | 81.4 | 96.6

Details | area under dose-response curve, co-treatment: AZD3965 100 nM | area under dose-response curve, co-treatment: DMSO vehicle | area under dose-response curve, co-treatment: GSK2194069 100 nM | area under dose-response curve, co-treatment: pictilisib 100 nM | cell viability, 1 nM [%] | cell viability, 10 nM [%] | cell viability, 100 nM [%] | cell viability, 1000 nM [%] | cell viability, 10000 nM [%]
BV-173 [13] | – | – | – | – | 103 | 96.6 | 95.7 | 92 | 76.6
HEL [14] | – | – | – | – | 97.5 | 89.6 | 118 | 98.8 | 80.8
HL-60 [15] | – | – | – | – | 98.9 | 100 | 108 | 93.9 | 96.5
HL-60 [24] | < 0.0301 | < 0.0301 | 0.0624 | < 0.0301 | – | – | – | – | –
K-562 [16] | – | – | – | – | 101 | 96.1 | 104 | 96.8 | 90.6
KCL-22 [17] | – | – | – | – | 96.9 | 103 | 105 | 97.2 | 87.5
KG-1 [18] | – | – | – | – | 90.8 | 102 | 92.6 | 90 | 47.7
LAMA-84 [19] | – | – | – | – | 106 | 95.5 | 77.6 | 85.8 | 79.5
ML-2 [20] | – | – | – | – | 98.9 | 98.3 | 111 | 99.2 | 77.8
MOLM-13 [21] | – | – | – | – | 103 | 74 | 85.8 | 102 | 86.4
MV4-11 [22] | – | – | – | – | 99.4 | 99.8 | 101 | 97.6 | 85.9
SHI-1 [23] | – | – | – | – | 99 | 101 | 103 | 96.9 | 104
